These results are taken from article PMC11892739, “Site-specific molecular glues for the 14-3-3/Tau pS214 protein–protein interaction via reversible covalent imine tethering” (RSC Medicinal Chemistry, 2025).

The target of one assay is T1, 14-3-3ζ/Tau pS2 peptide interaction (Homo sapiens, UniProt P63104).
T1 construct: made in house; host or cells: NiCo21 (DE3) E. coli
T1 sequence (P63104 1-245): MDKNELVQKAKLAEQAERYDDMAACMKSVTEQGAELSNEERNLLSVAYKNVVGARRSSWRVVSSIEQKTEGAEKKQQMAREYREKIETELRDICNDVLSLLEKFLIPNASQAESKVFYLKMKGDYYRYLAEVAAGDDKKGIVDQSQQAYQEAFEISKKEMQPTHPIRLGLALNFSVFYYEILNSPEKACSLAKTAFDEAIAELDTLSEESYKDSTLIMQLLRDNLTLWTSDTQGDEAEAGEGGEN
Kind of assay: Fluorescence anisotropy 14-3-3ζ titration in the presence of 250 μM compound and Tau pS2 peptide. Format: binding. As to conditions: 250 μM compound; apparent KD compared to internal DMSO reference. Here is the method:
On the other hand, the PPI stabilizing potency of series 1 compounds was highly dependent on the position and chemical property of the substituent. […] The compound screen for these compounds was further complemented by 14-3-3ζ titration assays in the presence of a constant concentration of compound (250 μM) and Tau pS2 peptide (10 nM) (Fig. 3c, ESI ^† Fig. S6).
This statement is strengthened by the diminished stabilizing activity when shifting the more polar chloro substituent from the para (14) to the ortho (5) to the meta position (8), respectively. […]
chromatography (HisTrap high performance cartridges, Cytiva). Typically two 5 mL columns were used for a 2 L culture in which the lysate was loaded on the column, washed with 10 CV wash buffer (50 mM Hepes, pH 8.0, 300 mM NaCl, 25 mM imidazole, 2 mM βME), and eluted with several fractions (2-4 CV) of elution buffer (50 mM Hepes, pH 8.0, 300 mM NaCl, 250 mM imidazole, 2 mM βME). Fractions containing the 14-3-3 protein were combined and dialyzed into 25 mM HEPES pH 8.0, 200 mM NaCl, 10 mM MgCl2, 2 mM βME, followed by dialysis into 25 mM HEPES, 100 mM NaCl, 10 mM MgCl2, 500 μM TCEP (adjusted to pH 8.0). Dialyzed protein was concentrated to ∼40 mg/mL, analyzed by Q -Tof LC/MS, and aliquots were flash -frozen for storage at −80 °C. For 14 -3-3σ∆c, 1 mg TEV per 100 mg purified protein was added to the dialysis to remove the purification tag. The cleaved sample was then again loaded on a 10 mL Ni-NTA column to separate the cleaved product from the expression tag and residual uncleaved protein. The flowthrough was loade d on a Superdex 75 pg 16/60 size exclusion column (GE Life Sciences) using 25 mM HEPES, 100 mM NaCl, 10 mM MgCl2, 500 μM TCEP (adjusted to pH = 8.0) as running buffer. Fractions containing the 14 -3-3 protein were pooled and concentrated to ∼60 mg/mL, analyzed Q -Tof LC/MS, and aliquots were flash -frozen for storage at −80°C.
Fluorescence Anisotropy – compound titration
Compound titration assays were performed by titrating compounds (in 1% DMSO, starting at 500 μM) in a 2-fold dilution series to preformed complex of fluorescein -labeled Tau pS2 (10 nM) and 14 -3-3ζ (100 nM) (which represents approximately 20% bound Tau pS2 peptide to 14 -3-3ζ to allow further complex formation by addition of fragments 1) in FA buffer (10 mM HEPES pH 7.4, 150 mM NaCl, 50 µM TCEP, 0.1% (v/v) Tween20, 0.1% (w/v) BSA). Dilution series were made in polystyrene low -volume 384 -well plates (Corning #4514, Black Round Bottom). Measurements were performed directly after plate preparation, using a Tecan SPARK plate reader at room temperature ( λex: 485±20 nm; λem: 535±25 nm; mirror: automatic; flashes: 30; settle time: 1 ms; gain: optimal; Z -position: calculated from well). Wells containing only fluorescein labelled peptide were used to set as G -factor calibrated from these wells. All data were analyzed using GraphPad Prism (10.0.1) and fitted with a four -parameter logistic model (4PL) to determine binding affinities (dissociation constant, KD). All data shown is background corrected for the signal without 14 -3-3ζ and the mean and standard deviation of technical duplicate is plotted, assay performed in a scientific duplicate for hit compounds.
Fluorescence Anisotropy – 14-3-3 titrations in the presence of compound To characterize the affinity of the Tau peptides for 14-3-3 in the presence of compound, 14-3-3ζ or γ was titrated in a 2-fold dilution series starting at 400 (for the 14-3-3ζ titrations to Tau pS2) or 800 (for the 14-3-3γ titrations to Tau pS214 or pS324) µM. 14-3-3 was added to 10 nM of fluorescein-labeled peptide (Tau pS2, Tau pS214 or Tau pS324) in the presence of 250 µM compound (1% DMSO). The assays were performed in a similar way as described above. Data shown is the average and standard deviation of a technical duplicate, top plateau corrected where needed, assay performed in a scientific duplicate.
Fluorescence Anisotropy – peptide screen […]
Background: In fluorescence polarisation assays a small probe gives low polarisation when free and higher when bound to something large.
For `O=Cc1ccc(-n2ccnc2-c2ccccc2)cc1Br` [Compound 1], the “SF250μM (stabilization factor)” value is reported as 23.

On to `Cc1cccc(-c2nccn2-c2ccc(C=O)c(Br)c2)c1` [Compound 6], for which the “SF250μM (stabilization factor)” value is listed as 10.

Regarding `Cc1ccc(-c2nccn2-c2ccc(C=O)c(Br)c2)cc1` [Compound 11], the “SF250μM (stabilization factor)” value stood at 29.

As to `O=Cc1ccc(-n2ccnc2-c2ccc(F)cc2)cc1Br` [Compound 13], the “SF250μM (stabilization factor)” value came out at 33.

For `O=Cc1ccc(-n2ccnc2-c2ccc(Cl)cc2)cc1Br` [Compound 14], the “SF250μM (stabilization factor)” value came out at 8.9.

For `O=Cc1ccc(-n2ccnc2-c2ccc(I)cc2)cc1Br` [Compound 15], the “SF250μM (stabilization factor)” value was 3.1.

In the case of `CCc1ccc(-c2nccn2-c2ccc(C=O)c(Br)c2)cc1` [Compound 18], the “SF250μM (stabilization factor)” value amounted to 37.

On to `O=Cc1ccc(-n2ccnc2-c2ccc(C(F)(F)F)cc2)cc1Br` [Compound 20], for which the “SF250μM (stabilization factor)” value is 13.

As to `O=Cc1ccc(-n2ccnc2-c2ccc(OC(F)(F)F)cc2)cc1Br` [Compound 21], the “SF250μM (stabilization factor)” value is 11.

With `N#Cc1ccc(-c2nccn2-c2ccc(C=O)c(Br)c2)cc1` [Compound 22], the “SF250μM (stabilization factor)” value was 34.

The assay is the same for the next values; noted with them: screening hits.
Regarding `O=Cc1ccc(-n2ccnc2-c2ccccc2)cc1Br` [Compound 1], the “stabilization of the 14-3-3ζ/Tau pS2 peptide complex” value was found to be 23 fold.
